{
  "source": "paper PMC3003779",
  "about": "(Chemistry & biology, 2010)",
  "key": {"other serine hydrolases": {"test_system": "other serine hydrolases", "test": "competitive activity-based protein profiling, ex vivo after i.p. dosing", "assay_type": "in vivo, mouse", "details": "1 h"}, "FAAH [1]": {"target": "T1, FAAH (Mus musculus, UniProt O08914)", "T1 sequence (O08914 1-579)": "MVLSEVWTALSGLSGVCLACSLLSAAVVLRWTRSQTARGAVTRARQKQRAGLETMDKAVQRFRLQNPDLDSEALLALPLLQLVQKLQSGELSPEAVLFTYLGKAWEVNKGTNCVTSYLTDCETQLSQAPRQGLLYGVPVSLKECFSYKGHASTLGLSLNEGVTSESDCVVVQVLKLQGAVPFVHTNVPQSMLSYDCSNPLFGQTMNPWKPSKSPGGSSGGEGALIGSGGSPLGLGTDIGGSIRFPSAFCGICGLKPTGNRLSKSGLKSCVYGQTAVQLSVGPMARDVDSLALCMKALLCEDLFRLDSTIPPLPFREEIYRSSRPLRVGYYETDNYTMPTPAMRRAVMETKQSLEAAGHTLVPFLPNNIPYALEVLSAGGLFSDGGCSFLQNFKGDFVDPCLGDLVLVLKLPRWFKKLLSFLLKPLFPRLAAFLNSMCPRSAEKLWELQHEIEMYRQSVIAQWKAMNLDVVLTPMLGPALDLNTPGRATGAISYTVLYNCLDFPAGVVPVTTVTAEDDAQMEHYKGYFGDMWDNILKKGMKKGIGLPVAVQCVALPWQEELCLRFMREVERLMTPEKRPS", "assay_type": "cell-based", "details": "100 nM"}, "SHR [2]": {"test_system": "SHR", "test": "cardiovascular effects under ganglionic blockade", "details": "1 mg/kg, hexamethonium + vasopressin + isoproterenol"}, "FAAH [3]": {"target": "T1, FAAH", "test": "FAAH activity in brain and liver homogenates, drug added in vitro", "assay_type": "biochemical", "details": "100 nM added in vitro, brain and liver homogenates"}, "FAAH [4]": {"target": "T1, FAAH", "test": "in vivo", "assay_type": "in vivo"}, "SHR [5]": {"test_system": "SHR", "test": "mean arterial pressure and heart rate in chronically cannulated conscious SHR", "assay_type": "in vivo, rat", "details": "0.5 mg/kg i.v."}, "CB2 receptors": {"target": "T2, CB2 receptors (Rattus norvegicus, UniProt Q9QZN9)", "T2 sequence (Q9QZN9 1-360)": "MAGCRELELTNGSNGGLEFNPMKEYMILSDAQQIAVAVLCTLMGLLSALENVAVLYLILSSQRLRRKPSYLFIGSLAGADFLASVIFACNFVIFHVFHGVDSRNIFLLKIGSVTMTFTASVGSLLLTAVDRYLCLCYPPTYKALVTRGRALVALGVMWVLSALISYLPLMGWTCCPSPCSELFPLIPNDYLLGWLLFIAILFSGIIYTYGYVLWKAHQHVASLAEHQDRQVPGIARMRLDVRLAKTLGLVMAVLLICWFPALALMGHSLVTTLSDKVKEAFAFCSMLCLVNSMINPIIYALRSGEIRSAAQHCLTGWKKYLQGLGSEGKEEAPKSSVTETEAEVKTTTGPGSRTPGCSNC", "test": "radioligand displacement, [3H]CP,55940, rat spleen membranes"}, "[6]": {"test_system": "anandamide levels in hepatocytes", "test": "anandamide levels in hepatocytes", "assay_type": "cell-based, mouse", "details": "100 nM, dense suspension 40 mg/mL"}, "FAAH [7]": {"target": "T3, FAAH (Rattus norvegicus, UniProt P97612)", "T3 sequence (P97612 1-579)": "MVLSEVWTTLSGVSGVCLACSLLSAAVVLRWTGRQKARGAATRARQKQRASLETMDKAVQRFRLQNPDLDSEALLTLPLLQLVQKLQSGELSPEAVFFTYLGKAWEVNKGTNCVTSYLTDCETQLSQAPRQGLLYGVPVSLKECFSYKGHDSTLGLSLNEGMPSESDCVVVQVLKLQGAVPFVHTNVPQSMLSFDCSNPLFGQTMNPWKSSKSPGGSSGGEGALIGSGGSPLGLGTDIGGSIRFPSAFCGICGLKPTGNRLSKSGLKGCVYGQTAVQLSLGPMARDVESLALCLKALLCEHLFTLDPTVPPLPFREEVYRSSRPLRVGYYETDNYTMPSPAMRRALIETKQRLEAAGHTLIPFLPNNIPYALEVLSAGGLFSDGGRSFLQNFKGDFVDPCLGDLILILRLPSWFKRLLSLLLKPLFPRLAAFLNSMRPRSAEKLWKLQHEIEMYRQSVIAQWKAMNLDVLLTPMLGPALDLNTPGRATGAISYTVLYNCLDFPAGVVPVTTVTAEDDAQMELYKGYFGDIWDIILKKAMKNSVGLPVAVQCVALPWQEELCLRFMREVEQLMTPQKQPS", "assay_type": "in vivo", "details": "for ID50, inhibition of brain FAAH activity: i.p., 1 h; for reduction of hepatic FAAH activity: 1 mg/kg i.p."}, "human recombinant FAAH": {"target": "T4, human recombinant FAAH (Homo sapiens, UniProt O00519)", "T4 sequence (O00519 1-579)": "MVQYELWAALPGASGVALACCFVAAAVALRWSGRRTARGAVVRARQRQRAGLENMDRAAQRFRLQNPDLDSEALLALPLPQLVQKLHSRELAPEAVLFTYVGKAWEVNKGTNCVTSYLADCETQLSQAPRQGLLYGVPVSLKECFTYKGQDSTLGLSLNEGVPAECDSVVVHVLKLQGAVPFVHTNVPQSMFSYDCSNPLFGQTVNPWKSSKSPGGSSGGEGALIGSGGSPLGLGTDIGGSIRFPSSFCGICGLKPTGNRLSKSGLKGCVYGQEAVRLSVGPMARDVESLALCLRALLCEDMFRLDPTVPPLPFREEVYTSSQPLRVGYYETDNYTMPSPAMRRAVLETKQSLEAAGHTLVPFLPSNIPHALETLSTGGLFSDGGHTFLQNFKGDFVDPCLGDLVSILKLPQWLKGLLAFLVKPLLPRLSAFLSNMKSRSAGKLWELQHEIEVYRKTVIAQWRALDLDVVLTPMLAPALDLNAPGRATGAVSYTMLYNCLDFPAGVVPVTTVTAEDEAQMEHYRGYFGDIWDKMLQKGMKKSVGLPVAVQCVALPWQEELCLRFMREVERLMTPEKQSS", "test": "biochemical"}, "[8]": {"test_system": "mice with diet-induced obesity", "test": "intraperitoneal glucose tolerance test in mice on high-fat diet", "assay_type": "in vivo, mouse", "details": "male DIO mice"}},
  "note": "Like-named read-outs stand apart in the source and are kept apart here.",
  "data": [
    {"compound": "O=S(=O)(F)CCCCCc1ccc(O)cc1", "note": "[AM3506, 5-(4-hydroxyphenyl)pentanesulfonyl fluoride]", "values": [
      {"measurement": "activity of other serine hydrolases in brain (ABPP)", "setting": "other serine hydrolases; mouse brain, 0.1 mg/kg i.p.", "result": "no change"},
      {"measurement": "liver unidentified ~58kD protein activity (ABPP)", "setting": "other serine hydrolases; mouse liver, 1 mg/kg i.p.", "result": "partial inhibition"},
      {"measurement": "FAAH activity in cells, dense hepatocyte suspension", "setting": "FAAH [1]; 40 mg/mL", "result": "no measurable change"},
      {"measurement": "FAAH activity in cell pellet, dilute hepatocyte suspension", "setting": "FAAH [1]; 30 min, 1 mg wet cell weight/mL", "result": "nearly completely blocked"},
      {"measurement": "reduction of the bradycardia elicited by AM3506 under ganglionic blockade", "setting": "SHR [2]", "result": "74.0±7.7", "unit": "%"},
      {"measurement": "reduction of the hypotension elicited by AM3506 under ganglionic blockade", "setting": "SHR [2]", "result": "89.6±3.6", "unit": "%"},
      {"measurement": "FAAH activity in tissue homogenates", "setting": "FAAH [3]", "result": "equally effective in blocking FAAH activity in brain and liver"},
      {"measurement": "ID50, inhibition of brain FAAH activity", "setting": "FAAH [4]; mouse brain, ex vivo", "result": 0.10, "unit": "mg/kg"},
      {"measurement": "FAAH inhibitory activity in liver", "setting": "FAAH [4]; mouse liver, doses up to 1 mg/kg", "result": "devoid of substantial FAAH inhibitory activity"},
      {"measurement": "suppression of FAAH activity in brain", "setting": "FAAH [4]; oral, 1 mg/kg, brain", "result": "90±0.4", "unit": "%"},
      {"measurement": "suppression of hepatic FAAH activity", "setting": "FAAH [4]; oral, 1 mg/kg, liver", "result": "13±2.6", "unit": "%"},
      {"measurement": "duration of MAP and HR effects", "setting": "SHR [5]; awake SHR, n = 5", "result": "up to 60 minutes"},
      {"measurement": "MAP after treatment", "setting": "SHR [5]; conscious SHR, from 176 ±4, n=4", "result": "127±5", "unit": "mmHg"},
      {"measurement": "HR after treatment", "setting": "SHR [5]; conscious SHR, from 355±6, n=4", "result": "286±22", "unit": "bpm"},
      {"measurement": "duration of MAP and HR effects", "setting": "SHR [5]; conscious SHR, n=4", "result": "up to an hour"},
      {"measurement": "Ki", "setting": "CB2 receptors", "result": 0.192, "unit": "µM"},
      {"measurement": "anandamide levels in hepatocytes", "setting": "[6]", "result": "remained unchanged"},
      {"measurement": "ID50, inhibition of brain FAAH activity", "setting": "FAAH [7]; SHR brain", "result": "~0.1", "unit": "mg/kg"},
      {"measurement": "reduction of hepatic FAAH activity", "setting": "FAAH [7]; SHR liver", "result": "11.1±0.4", "unit": "%"},
      {"measurement": "ID50, inhibition of brain FAAH activity", "setting": "FAAH [7]; WKY brain", "result": "~0.1", "unit": "mg/kg"},
      {"measurement": "reduction of hepatic FAAH activity", "setting": "FAAH [7]; WKY liver", "result": "6.7±0.2", "unit": "%"},
      {"measurement": "IC50", "setting": "human recombinant FAAH", "result": 0.048, "unit": "µM"},
      {"measurement": "effect on glucose tolerance", "setting": "[8]; 1 mg/kg", "result": "did not affect glucose tolerance"},
      {"measurement": "ipGTT area under the curve (AUC)", "setting": "[8]; 1 mg/kg i.p. 60 min before glucose, vehicle 352±28", "result": "411 ± 35", "unit": "mg·h/dL"}
    ]}
  ]
}
